Laboratory results taken from patent publication US20230392180A1, “MICROSCOPIC IMAGING AND ANALYSES OF EPIGENETIC LANDSCAPE” (Sanford Burnham Prebys Medical Discovery Institute, priority 2020, published 2023).
Entries after “also recorded” stand apart in the source; their conditions may differ.

Legend:
[1] = Variance of chromatin and epigenetic landscape (VITA) score; assay type: in vivo, mice; details: after treatment
Text: In some instances, in addition to computing the values of individual cell nucelli in multidimensional space of statistical texture features, coefficient of variance (CV) is used, defined as the ratio of the standard deviation a sigma to the mean p, namely. CV for each field of view, well, technical replicate, and biological replicate such organs tissues and cells from individual mice could be computed based on individual nuclei and the results are stable using 200-2000 nuclei per experimental replica (e.g., individual wells). […] This means that quantitatively CV can be informative values serving as a quantitative measurement of individual organ, tissue, or cell type from individual animals.

C57BL/6J male mice = assay: miBioAge (MIEL-CLOCK) after doxorubicin injection; assay type: in vivo
Method: This can be shown by employing classical treatments such as doxorubicin (DOX), paclitaxel (PTX), or temozolomide (TMZ), known to promote hallmarks of aging to compare miBioAge readouts in blood (PBMC and CD3+ cells) and liver hepatocytes to chronologically matched untreated controls. Blood was collected on day 0 (retro-orbital) from 3-month old C57BL/6J male mice and 22-month old C57BL/6J male mice. On day 1, doxorubicin was injected into the experimental mice. All controls received PBS injection. Blood was collected on day 20 (retro-orbital) from all mice and liver hepatocytes on day 21. Cells were analyzed 21 days after treatment to avoid the effects of acute stress response and favor the aging-related phenomena.

[2] = female, human
GBM2 cells [3] = assay: RNAseq and transcriptomic analysis; assay type: cell-based, human
Method: RNAseq and transcriptomic analysis: Total RNA was isolated from GBM2 cells using the RNeasy Kit (Qiagen), 0.5 ug total RNA was used for isolation of mRNAs and library preparation. Library preparation and sequencing was conducted by the SBP genomics core (Sanford-Burnham NCI Cancer Center Support Grant P30 CA030199). PolyA RNA was isolated using the NEBNext® Poly(A) mRNA Magnetic Isolation Module and barcoded libraries were made using the NEBNext® Ultra II™ Directional RNA Library Prep Kit for Illumina® (NEB, Ipswich MA). Libraries were pooled and single end sequenced (1X75) on the Illumina NextSeq 500 using the High output V2 kit (Illumina). Read data was processed in BaseSpace. Reads were aligned to Homo sapiens genome (hg19) using STAR aligner with default settings. Differential transcript expression was determined using the Cufflinks Cuffdiff package. Go term enrichment analysis was conducted using PANTHER v11 using all genes identified as differentially expressed following either serum or Bmp4 treatment. For heat maps showing fold change in expression the FPKM values in each population were divided by the average FPKM values of untreated GBM2. To highlight differences in expression levels between serum and Bmp4 treated GBM2 cells the FPKM values in each sample were z-scored. Zscore=(FPKMObservation−FPKMAverage)/FPKMSD (FPKMObservation−FPKM value obtain through sequencing; FPKMAverage−average of all FPKM values in all samples for a certain gene; FPKMSD−standard deviation of FPKM values for a certain gene). Heat maps were generated using Microsoft Excel conditional formatting function.
Correlation of transcriptomic and image-based profiles: Euclidean distance between untreated, serum or Bmp4 treated GBM2 cells (triplicates for each) was calculated using either transcriptomic data (FPKM) or texture features. Pearson's correlation coefficient (R) was transformed to a t-value using the formula (t=R×SQRT(N−2)/SQRT(1−R2) where N is the number of samples, and R is Pearson correlation coefficient, and the p-value was calculated using Excel tdist(t) function. For compound prioritization, the Euclidean distance between compound treated and serum or Bmp4 treated GBM2 cells was calculated based on either transcriptomic data (FPKM) or image features. The average distance to both serum and Bmp4 treatments was normalized to the average distance of untreated cells to serum and Bmp4.
RNAseq and transcriptomic analysis: Total RNA was isolated from GBM2 cells using the RNeasy Kit (Qiagen), 0.25 μg total RNA was used to isolate mRNAs and for library preparation. Library preparation and sequencing were conducted by the SBP genomics core (Sanford-Burnham NCI Cancer Center Support Grant P30 CA030199). PolyA RNA was isolated using the NEBNext® Poly(A) mRNA Magnetic Isolation Module, and barcoded libraries were made using the NEBNext® Ultra II™ Directional RNA Library Prep Kit for Illumina® (NEB, Ipswich MA). Libraries were pooled and single-end sequenced (1×75) on the Illumina NextSeq 500 using the High-Output V2 kit (Illumina). Read data, processed in BaseSpace, were aligned to Homo sapiens genome (hg19) using STAR aligner with default settings. Differential transcript expression was determined using the Cufflinks Cuffdiff package. For heat maps showing fold change in expression, FPKM values in each HDACi-treated population were divided by the average FPKM values of DMSO-treated GBM2 and values shown as log 2 of the ratio. Go enrichment analysis was conducted using PANTHER v11 using all genes identified as differentially expressed following either serum or Bmp4 treatment. To highlight differences in expression levels between serum- and Bmp4-treated GBM2 cells, FPKM values in each sample were z-scored. Zscore=(FPKMObservation−FPKMAverage)/FPKMSD (FPKMObservation−FPKM value obtain through sequencing; FPKMAverage−average of all FPKM values in all samples for a certain gene; FPKMSD−standard deviation of FPKM values for a certain gene). […]

GBM2 cells [4] = assay: Epigenetic Drug Screening (MIEL); assay type: cell-based, human
Text: Data processing: The image features-based profile for each cell population (e.g., cell types, treatments, technical repetition) was represented using a vector (center of distribution vectors) in which every element is the average value of all cells in that population for a particular feature. The vector's length is given by the number of features chosen (262 per histone modification). Raw feature values were normalized by z-scoring to the average and standard deviation of all populations being compared. All cells in each population were used to calculate center vectors, and each population contained at least 50 cells. Activity level for each drug was determined by calculating the distance from DMSO. […] Euclidean distance of each compound and each DMSO replicate to the DMSO center vector was calculated. Distances were z-scored to the average distance and standard deviation of DMSO replicates from the DMSO center vector. Transcriptomic-based profile for each cell population was represented using a vector in which every element is the z-scored FPKM value for a single gene in that population. […] Raw feature values for all center vectors of all populations in each plate were normalized to the plate-wise DMSO vector; normalized feature values were z-scored as above. […] Activity levels were calculated as above. […] Cell counts were z-scored against the average and standard deviation of all DMSO replicates. […]

H3K27ac and H3K27me3 = H3K27ac and H3K27me3 immunofluorescence intensity; assay type: cell-based, human; details: GBM2, low concentrations (<30 μM), compared with Pan HDAC inhibitors TSA, SAHA
GBM cell lines = assay: Immunostaining of core transcription factors and GFAP after serum or Bmp4 treatment; assay type: cell-based, human
Method: Differentiation treatment: For TPC differentiation treatments cells were cultured in DMEM:F12 Neurobasal media (1:1), 1% B27 supplement, 10% BIT 9500, 1 mM glutamine supplemented with either Bmp4 (100 ng/ml; R&D Systems) or FBS (10%).
Cell staining: Cells were rinsed with PBS and fixed in 4% paraformaldehyde in PBS for 10 min at room temperature. After blocking with PBSAT (2% BSA and 0.5% Triton X-100 in PBS) for 1 h at room temperature, the cells were incubated overnight at 4° C. with primary antibodies diluted in PBSAT. The primary antibodies are listed in Table 2, and the appropriate fluorochrome-conjugated secondary antibodies were used at 1:500 dilution. Nuclear co-staining was performed by incubating cells with Hoechst-33342 nuclear dye.
Microscopy and image analysis: Unless stated otherwise, for MIEL analysis cells were imaged on an Opera QEHS high-content screening system (PerkinElmer) using ×40 water immersion objectives. Images collected on the Opera were analyzed using Acapella 2.6 (PerkinElmer). […] Features of nuclear morphology, fluorescence intensity inter-channel co-localization, and texture features (Image moments, Haralick, Threshold Adjacency Statistics) were calculated using custom algorithms (scripts available from www.andrewslab.ca). […] Between 3 and 8 fields per well were acquired and analyzed using Acapella 2.6 (PerkinElmer). […]

TPCs = assay: Growth rate of treated glioblastoma cells; details: 3 days of serum or Bmp4 treatment

For `COc1cccc2c1C(=O)c1c(O)c3c(c(O)c1C2=O)C[C@@](O)(C(=O)CO)C[C@@H]3O[C@H]1C[C@H](N)[C@H](O)[C@H](C)O1` [DOX, doxorubicin], the VITA score [1] was “trend for the increase; also recorded: increases”, the miBioAge distance (C57BL/6J male mice; 3-month, compared to 3-month control) was “increases” and the “miBioAge signatures in CD3+ cells” value (C57BL/6J male mice; blood collected on day 20) was “trend shift”. For the same compound, the “miBioAge signatures in PBMC” value (C57BL/6J male mice; blood collected on day 20) was “trend shift” and the “miBioAge signatures in liver hepatocytes” value (C57BL/6J male mice; cells analyzed 21 days after treatment) was “towards the old age”.

With `Oc1ccc(O)cc1` [Hydroquinone] the “estimated concentrations reached following repeated administration” value [2] was about 10 µM.

With `CC(=O)S[C@@H]1CC2=CC(=O)CC[C@]2(C)[C@H]2CC[C@@]3(C)[C@@H](CC[C@@]34CCC(=O)O4)[C@H]12` [spironolactone] the “estimated concentrations reached following repeated administration” value [2] was about 10 µM.

For `CCCC(CCC)C(=O)O` [valproic acid], the “transcriptomic changes (genes altered vs DMSO)” value (GBM2 cells [3]; GBM2, 24 hours, valproic acid 15 μM) was “not reflected”, the “functional classification by discriminant analysis (MIEL)” value (GBM2 cells [4]; 10 μM, 24 hours, 85 compounds) was “active but were misclassified” and the “epigenetic changes detected by MIEL” value (GBM2 cells [4]; 24-hour treatment, low concentrations (<30 μM)) was “detectable epigenetic changes”. The “H3K27ac and H3K27me3 immunofluorescence intensity” value (H3K27ac and H3K27me3) was “no increase in histone acetylation or decrease in histone methylation”.

With “Bmp4: Bmp4 (100 ng/ml; R&D Systems), positive control inducing TPC differentiation” the “expression of most genes of the transcriptomic stemness signature” value (GBM2 cells [3]; GBM2, 3 days treatment, vs untreated cells) was “reduced”, the GFAP expression (GBM cell lines) was “increased” and the “expression of transcription factors Sox2, Sall2, Brn2 and Olig2” value (GBM cell lines; 3 days treatment, cell line dependent) was “down regulated; also recorded: downregulated”. For the same compound, the “growth rate of TPCs” value (TPCs) was “reduced; also recorded: attenuate”.
